Assay results from patent US12226401B2, “Molecular genetic approach to treatment and diagnosis of alcohol and drug dependence” (priority 2010, dated 2025).
Read-outs that look alike come from different tables or passages of the source.

Assays:
[1] = dose of 50 mg/day; cited from earlier work
[2] = test system: methamphetamine dependent subjects; type: in vivo, human
Experimental: Methods—The study was conducted at 8 sites, 140 subjects consented, screened for study eligibility and met DSM-IV criteria for methamphetamine dependence. Subjects were randomized to topiramate or placebo at 50 mg, escalating to 200 mg topiramate daily over weeks 1-5, and 200 mg daily over weeks 6-12. The primary outcome measure was abstinence from methamphetamine during study weeks 6 through 12. Methamphetamine use was determined using qualitative urine testing at a central laboratory. The primary outcome was analyzed using a Generalized Estimating Equation (GEE) model during weeks 6 through 12. Secondary outcomes included use reduction compared to baseline, relapse rate for subjects with negative urine at randomization, and craving. Blood samples were collected for genetic markers to examine the effects of topiramate on gene expression and to correlate genetic subtypes with response to treatment. RNA samples were collected from whole blood for 50 topiramate- and 49 placebo-treated individuals at baseline and weeks 8 and 12. Genome-wide expression profiles between positive and negative responders for Weeks 8 and 12 from placebo- and topiramate-treated groups were compared.

[3] = cited from earlier work

Row | Compound | Individuals in alcohol trials unable to tolerate naltrexone [1] | Treatment effect on primary outcome variable (abstinence from methamphetamine, weeks 6-12) ([2]; all subjects) | Treatment effect, exploratory analysis ([2]; subjects (n=26) with negative urine prior to randomization, p=0.02) | Treatment effect, exploratory analysis ([2]; subjects (n=35) whose baseline use was <18 days out of previous 30, p=0.03) | Cognitive impairment reported by individuals who take topiramate ([3]; general population) [%] | Occurrence rate of cognitive impairment ([3]; substance abuse field)
1 | Cl.O=C1CC[C@@]2(O)[C@H]3Cc4ccc(O)c5c4[C@@]2(CCN3CC2CC2)[C@H]1O5 [naltrexone, 17-(Cyclopropylmethyl)-4,5a-epoxy-3,14-dihydroxymorphinan-6-one hydrochloride] | about 15% | – | – | – | – | –
2 | CC1(C)O[C@@H]2[C@@H](CO[C@@]3(COS(N)(=O)=O)OC(C)(C)O[C@@H]23)O1 [topiramate, 2,3:4,5-Bis-O-(1-methylethylidene)-beta-D-fructopyranose sulfamate] | – | no significant treatment effect | significant treatment effect | significant treatment effect | 2.4 | about 18.7%
